These are literature values, as cited in US20090197952A1, “Glyceride Esters for the Treatment of Diseases Associated with Reduced Neuronal Metabolism of Glucose” (priority 2006, published 2009).

The test system of one data set is rat. The following applies: rat feeding studies.
For a further data set, the system named is mice. The settings on record: direct administration.
Data set [1] has as its system rats. The settings on record: infusion.
Data set [2] deals with rats. The following applies: rat, in vivo.
The next data set has as its system patients. The settings on record: infused at 8-9.3 g/Kg body weight/day to affect hyperketonemia.

As for `CC(O)CC(=O)OCC(O)CO` (racemic) [1-(DL-3-hydroxybutyryl)-glycerol], in the data set on rat, the acute toxicity entry is “not acutely toxic” and the chronic toxicity entry is “did not show any indication of chronic toxicity”. Turning to `CC(O)CC(=O)OCC(COC(=O)CC(C)O)OC(=O)CC(C)O` (racemic) [DL-tris-(3-hydroxybutyrl)-glycerol], in the data set with rat, the acute toxicity entry was “not acutely toxic” and the chronic toxicity entry is given as “did not show any indication of chronic toxicity”. In the case of `CC(O)CC(=O)O` (stereo not drawn) [3-hydroxybutyrate], in the data set on mice, the protection against neurotoxin entry was “can protect mice against a neurotoxin”. For `CC(=O)CC(=O)OCC(O)CO` (stereo not drawn) [monoacetoacetin], in the data set with rats [1] (elevated levels of ketone bodies achieved), the detrimental side effects result is “without any detrimental side effects”. Further, the “rate at which it could be safely infused” value with rats [1] (level equivalent to 2/3 of the rat's daily caloric requirement) was “at least 50 g/kg body weight/day”. On to `CC(=O)CC(=O)OCC(COC(=O)CC(C)=O)OC(=O)CC(C)=O` [triacetoacetin], for which, in the data set on rats [2], the tolerated amount is listed as 10 g/Kg body weight/day. For bisacetoacetin, the detrimental side effects result in the data set on patients is reported as “No detrimental side effects”.
